Source: patent US20220370317A1, “COMPOSITION FOR SKIN WHITENING, COMPRISING CARVONE OR SALT THEREOF AS ACTIVE INGREDIENT” (BOTANICSENS, priority 2019, published 2022)
Where two headings read alike, the source gives them in different places.

Key:
[1] = in water and ethanol; cited from earlier work
[2] = tested on: B6F10 melanocytes; test: Measurement of melanin production in cells (α-MSH-induced melanogenesis); format: cell-based; settings: α-MSH (100 nM) plus carvone (100 μM), 48 hours
Description: B16F10 melanocytes were purchased from ATCC (Manassas, Va., USA), and the purchased cells were cultured using DMEM (Dulbecco's Modified Eagle's Media) containing 10% FBS (fetal bovine serum) in an incubator at 37° C. under 5% CO2. B6F10 melanocytes were cultured in DMEM containing 10% FBS at 37° C. under 5% CO2, and then the cells were dispensed into a 6-well plate at a density of 1×10^5 cells/well and attached thereto. […] After washing twice with PBS (phosphate buffered saline), the cells were harvested. The harvested cells were centrifuged at 1,000 rpm for 5 minutes, and then the color of the pellet was visually observed. Thereafter, the cell pellet was lysed by adding 200 μL of 1N NaOH solution containing 10% DMSO, and then the absorbance at 400 nm was measured with a microplate reader.

[3] = transdermal; cited from earlier work
[4] = tested on: Tyrosinase; test: RNA extraction and quantitative PCR assay, tyrosinase expression; format: cell-based; settings: B6F10 melanocytes, α-MSH plus carvone, vs α-MSH control cells
Description: (§1) B6F10 melanocytes were cultured in DMEM containing 10% FBS at 37° C. under 5% CO2, and then the cells were dispensed into a 6-well plate at a density of 1×10^5 cells/well and attached thereto. As normal cells, cells not treated with α-MSH that induces melanogenesis were used, and as control cells, cells treated with α-MSH (100 nM) were used. The cells cultured under the above conditions were treated with α-MSH (100 nM) plus carvone (100 μM) and cultured for 48 hours. […] Using the cDNA obtained through reverse transcription as a template and using the [NT] flanking sequences of the gene cDNA to be amplified as primers, quantitative PCR was performed using iQ SYBR green supermix (Bio-Rad) and CFX ConnectTM Real-Time PCR Detection System (Bio-Rad). [table]

[5] = oral, rats; cited from earlier work
[6] = tested on: MITF (microphthalmia transcription factor); test: RNA extraction and quantitative PCR assay, MITF expression; format: cell-based; settings: B6F10 melanocytes, α-MSH plus carvone, vs α-MSH control cells
Description: as §1

## C=C(C)C1CC=C(C)C(=O)C1 (stereo not shown) [carvone]
[1]
  solubility: well soluble
[2]; absorbance at 400 nm, vs α-MSH control cells
  decrease of melanin content compared to control cells: 29%
[2]; compared to control cells treated with only α-MSH
  pellet color of cells, visually observed: significantly paler
[3]
  LD50: ≥ 4,000 mg/kg
[4]
  decrease of tyrosinase expression compared to control cells: 31%
[5]
  LD50: 1,640 mg/kg
[6]
  decrease of MITF expression compared to control cells: 36%
